Activity calls are given as the source filed them. No cut-off for these calls is given here.
How the values were obtained:
[1] = target: T1, Induced myeloid leukemia cell differentiation protein Mcl-1 (Homo sapiens, UniProt Q07820); experiment: Inhibition of FITC-labeled Bak BH3 peptide binding to GST-tagged MCL1 (171 to 327 residues) (unknown origin) expressed in Escherichia coli BL21 (DE3) incubated for 30 mins fluorescence polarization-based competitive binding assay
K562 [2] = experiment: Induction of apoptosis in human K562 cells assessed as activation of caspase 7 up to 5 uM after 4 hrs by luminescence based microplate reader assay; type: functional, cell-based; settings: dose microM <=5, time 4.0 hrs
K562 [3] = experiment: Induction of apoptosis in human K562 cells assessed as upregulation of cleaved PARP up to 5 uM measured after 48 hrs by Western blot analysis; type: functional, cell-based; settings: dose microM <=5, time 48.0 hrs
NCI-H929 [4] = experiment: Antiproliferative activity against human NCI-H929 cells assessed as decrease in cell viability measured after 72 hrs by MTT assay; type: functional, cell-based; settings: NCI-H929, 72 h
NCI-H23 = experiment: Antiproliferative activity against human NCI-H23 cells assessed as decrease in cell viability measured after 72 hrs by MTT assay; type: functional, cell-based; settings: NCI-H23, 72 h
NCI-H929 [5] = experiment: Induction of apoptosis in human NCI-H929 cells measured after 48 hrs by annexinV-FITC/propidium iodide staining based flow cytometry analysis; type: functional, cell-based; settings: dose 1-5 µM
K562 [6] = experiment: Induction of apoptosis in human K562 cells assessed as activation of caspase 3 up to 5 uM after 4 hrs by luminescence based microplate reader assay; type: functional, cell-based; settings: dose microM <=5, time 4.0 hrs
MV4-11 = experiment: Antiproliferative activity against human MV4-11 cells assessed as decrease in cell viability measured after 72 hrs by MTT assay; type: functional, cell-based; settings: MV4-11, 72 h
K562 [7] = experiment: Antiproliferative activity against human K562 cells assessed as decrease in cell viability measured after 72 hrs by MTT assay; type: functional, cell-based; settings: K562, 72 h
NCI-H929 [8] = experiment: Induction of apoptosis in human NCI-H929 cells assessed as upregulation of cleaved PARP measured after 48 hrs by Western blot analysis; type: functional, cell-based; settings: dose microM <=5, time 48.0 hrs
SK-BR-3 = experiment: Antiproliferative activity against human SK-BR-3 cells assessed as decrease in cell viability measured after 72 hrs by MTT assay; type: functional, cell-based; settings: SK-BR-3, 72 h
[9] = target: T1, Induced myeloid leukemia cell differentiation protein Mcl-1; experiment: Inhibition of FITC-labeled Bak BH3 peptide binding to GST-tagged MCL1 (171 to 327 residues) (unknown origin) expressed in Escherichia coli BL21 (DE3) at 30 uM incubated for 30 mins fluorescence polarization-based competitive binding assay relative to control
[10] = target: Apoptosis regulator Bcl-2 (Homo sapiens, UniProt P10415); experiment: Inhibition of FITC-labeled Bak BH3 peptide binding to GST-tagged BCL2 (1 to 205 residues) (unknown origin) expressed in Escherichia coli BL21 (DE3) at 10 uM incubated for 30 mins fluorescence polarization-based competitive binding assay relative to control
[11] = target: T2, Bcl-2-related protein A1 (Homo sapiens) (UniProt Q16548); experiment: Inhibition of FITC-labeled Bak BH3 peptide binding to GST-tagged BFL1 (1 to 151 residues) (unknown origin) expressed in Escherichia coli BL21 (DE3) at 10 uM incubated for 30 mins fluorescence polarization-based competitive binding assay relative to control
T2 sequence (whole entry): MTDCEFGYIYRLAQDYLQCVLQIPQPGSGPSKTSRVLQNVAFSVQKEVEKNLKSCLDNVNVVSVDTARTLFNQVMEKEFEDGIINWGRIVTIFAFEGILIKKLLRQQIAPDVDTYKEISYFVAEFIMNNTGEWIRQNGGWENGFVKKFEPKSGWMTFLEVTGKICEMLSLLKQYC

Bcl-2-like protein 1 = Bcl-2-like protein 1 (Homo sapiens, UniProt Q07817); experiment: Inhibition of BCL-XL(unknown origin) at 10 uM incubated for 120 mins by TR-FRET assay relative to control
Chain of Bcl-2-like protein 1 (Q07817 whole entry): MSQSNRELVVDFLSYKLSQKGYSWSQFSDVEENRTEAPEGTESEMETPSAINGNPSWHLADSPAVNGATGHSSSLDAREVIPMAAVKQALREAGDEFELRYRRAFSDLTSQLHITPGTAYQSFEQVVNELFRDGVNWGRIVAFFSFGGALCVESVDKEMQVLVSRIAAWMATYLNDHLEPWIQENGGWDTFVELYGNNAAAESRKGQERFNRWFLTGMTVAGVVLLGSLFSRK

T1 sequence (Q07820 whole entry, the tested form may be a part): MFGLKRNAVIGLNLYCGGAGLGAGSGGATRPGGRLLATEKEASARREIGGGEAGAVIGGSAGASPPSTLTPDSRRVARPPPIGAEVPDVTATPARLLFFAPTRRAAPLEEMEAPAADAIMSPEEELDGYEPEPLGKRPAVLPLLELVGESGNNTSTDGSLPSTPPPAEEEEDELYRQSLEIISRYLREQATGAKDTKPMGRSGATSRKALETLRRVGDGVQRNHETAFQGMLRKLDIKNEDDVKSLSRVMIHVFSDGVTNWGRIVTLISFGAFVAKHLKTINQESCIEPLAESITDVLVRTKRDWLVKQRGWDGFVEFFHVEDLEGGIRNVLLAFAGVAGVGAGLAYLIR
Chain of Apoptosis regulator Bcl-2 (P10415 whole entry, the tested form may be a part): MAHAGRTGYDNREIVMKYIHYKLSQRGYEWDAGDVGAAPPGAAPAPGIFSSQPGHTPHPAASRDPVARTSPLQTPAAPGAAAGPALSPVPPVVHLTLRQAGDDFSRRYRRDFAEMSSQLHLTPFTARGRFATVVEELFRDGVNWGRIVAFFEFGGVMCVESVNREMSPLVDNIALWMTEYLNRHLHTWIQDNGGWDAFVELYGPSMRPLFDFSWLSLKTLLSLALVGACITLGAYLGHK

Row | Compound | Ki [1] [nM] | other results
1 | Cc1ccc(S(=O)(=O)c2c(C)c(C(=O)O)n(CCCOc3cc(C)c(Cl)c(C)c3)c2C)cc1 | 170 | –
2 | Cc1cc(OCCCn2c(C)c(S(=O)(=O)c3ccccc3)c(C)c2C(=O)O)cc(C)c1Cl | 190 | –
3 | Cc1nn(C)c(COc2ccc(N3CCN(S(=O)(=O)N(C)C)CC3)cc2)c1-c1cccc2c(CCCOc3cccc4ccccc34)c(C(=O)O)n(CCN3CCOCC3)c12 | 6 | Activity (K562 [2]): inactive; Activity (K562 [3]): inactive; IC50 (NCI-H929 [4]): 900 nM; IC50 (NCI-H23): 13500 nM; Activity (NCI-H929 [5]): Dose-Dependent Effect; Activity (K562 [6]): inactive; IC50 (MV4-11): 1550 nM; IC50 (K562 [7]): > 30000 nM; Activity (NCI-H929 [8]): Dose-Dependent Effect; IC50 (SK-BR-3): 4310 nM
4 | Cc1ccc(Cc2cc(C(=O)O)n(CCCOc3cc(C)c(Cl)c(C)c3)c2)cc1 | 5340 | inhibition [9]: 53%
5 | Cc1cc(OCCCn2c(C)c(S(=O)(=O)c3cccc4ccccc34)c(C)c2C(=O)O)cc(C)c1Cl | 360 | –
6 | CCc1c(S(=O)(=O)c2ccc(C)cc2)c(C)n(CCCOc2cc(C)c(Cl)c(C)c2)c1C(=O)O | 120 | –
7 | Cc1cc(OCCCn2c(C)c(S(=O)(=O)c3ccc(N)cc3)c(C)c2C(=O)O)cc(C)c1Cl | 340 | –
8 | COc1ccccc1S(=O)(=O)c1c(C)c(C(=O)O)n(CCCOc2cc(C)c(Cl)c(C)c2)c1C | 430 | –
9 | Cc1cc(OCCCn2c(C)c(S(=O)(=O)c3ccc(Cl)cc3)c(C)c2C(=O)O)cc(C)c1Cl | 180 | –
10 | CCc1c(S(=O)(=O)c2ccc(C)cc2)c(C)c(C(=O)O)n1CCCOc1cc(C)c(Cl)c(C)c1 | 2490 | –
11 | CC(=O)c1ccccc1S(=O)(=O)c1c(C)c(C(=O)O)n(CCCOc2cc(C)c(Cl)c(C)c2)c1C | 500 | –
12 | Cc1cc(OCCCn2c(C)c(S(=O)(=O)c3cccc(O)c3)c(C)c2C(=O)O)cc(C)c1Cl | 150 | –
13 | Cc1cc(OCCCn2c(C)c(S(=O)(=O)c3ccc(F)cc3)c(C)c2C(=O)O)cc(C)c1Cl | 260 | –
14 | Cc1ccc(S(=O)(=O)c2c(C)c(C(=O)O)n(CCCOc3cc(C)c(Cl)c(C)c3)c2CC(C)C)cc1 | 1600 | –
15 | Cc1cc(OCCCn2c(C)c(S(=O)(=O)c3ccc(O)cc3)c(C)c2C(=O)O)cc(C)c1Cl | 18 | IC50 (NCI-H929 [4]): 1390 nM; IC50 (NCI-H23): 2160 nM; IC50 (MV4-11): 2020 nM; IC50 (K562 [7]): 14800 nM; IC50 (SK-BR-3): 7020 nM

Continued, in another order:

Row | Ki [1] [nM] | Compound | other results
16 | 200 | COc1cccc(S(=O)(=O)c2c(C)c(C(=O)O)n(CCCOc3cc(C)c(Cl)c(C)c3)c2C)c1 | –
17 | 60 | Cc1cc(OCCCn2c(C)c(S(=O)(=O)c3cccc(Br)c3)c(C)c2C(=O)O)cc(C)c1Cl | –
18 | 420 | Cc1cc(OCCCn2c(C)c(S(=O)(=O)c3ccc(C(=O)O)cc3)c(C)c2C(=O)O)cc(C)c1Cl | –
19 | 150 | Cc1cc(OCCCn2c(C)c(S(=O)(=O)c3ccccc3O)c(C)c2C(=O)O)cc(C)c1Cl | –
20 | 40 | Cc1cc(OCCCn2c(C)c(S(=O)(=O)c3ccc(Br)cc3)c(C)c2C(=O)O)cc(C)c1Cl | inhibition [10]: 11.6%; inhibition [11]: 4.14%; IC50 (NCI-H929 [4]): 480 nM; IC50 (NCI-H23): 3840 nM; IC50 (MV4-11): 1700 nM; inhibition (Bcl-2-like protein 1): 13%; IC50 (K562 [7]): > 30000 nM; IC50 (SK-BR-3): 5600 nM
21 | 340 | Cc1cc(OCCCn2c(C)c(S(=O)(=O)c3ccc(C(C)(C)C)cc3)c(C)c2C(=O)O)cc(C)c1Cl | –
22 | > 10000 | Cc1cc(OCCCn2c(C)c(S(=O)(=O)c3c(C)cccc3C)c(C)c2C(=O)O)cc(C)c1Cl | –
23 | 680 | Cc1ccc(Sc2c(C)c(C(=O)O)n(CCCOc3cc(C)c(Cl)c(C)c3)c2C)cc1 | –
24 | 900 | Cc1cc(OCCCn2c(C)c(S(=O)(=O)c3ccncc3)c(C)c2C(=O)O)cc(C)c1Cl | –

Source: ChEMBL document CHEMBL4834480, “Discovery of 3,5-Dimethyl-4-Sulfonyl-1H-Pyrrole-Based Myeloid Cell Leukemia 1 Inhibitors with High Affinity, Selectivity, and Oral Bioavailability” (J Med Chem, 2021)
